ChEMBL document CHEMBL4842337, “Synthesis, computational docking and biological evaluation of celastrol derivatives as dual inhibitors of SERCA and P-glycoprotein in cancer therapy” (Eur J Med Chem, 2021)
The source made the active and inactive calls. The calls are words filed in the database; no cut-off is given here.

Assays:
HepG2 [1] = test: Antiproliferative activity against human HepG2 cells assessed as inhibition of cell proliferation measured after 72 hrs by MTT assay; assay type: functional, cell-based; settings: HepG2, 72 h
L02 [2] = test: Cytotoxicity against human L02 cells assessed as cell viability measured after 72 hrs by MTT assay; assay type: cell-based; settings: L02, 72 h
A549 = test: Antiproliferative activity against human A549 cells assessed as inhibition of cell proliferation measured after 72 hrs by MTT assay; assay type: functional, cell-based; settings: A549, 72 h
BEAS-2B = test: Antiproliferative activity against human BEAS-2B cells assessed as inhibition of cell proliferation measured after 72 hrs by MTT assay; assay type: functional, cell-based
[3] = Antiproliferative activity against human HePAD38 cells assessed as inhibition of cell proliferation measured after 72 hrs by MTT assay; assay type: functional, cell-based; settings: HePAD38, 72 h
[4] = Selectivity index, ratio of IC50 for human CCD 19Lu cells to IC50 for human HePAD38 cells
[5] = Selectivity index, ratio of IC50 for human L02 cells to IC50 for human HePAD38 cells
[6] = Selectivity index, ratio of IC50 for human L02 cells to IC50 for human HepG2 cells; assay type: toxicity; settings: L02 cells versus HepG2 cells, read-out: Ratio IC50
[7] = Selectivity index, ratio of IC50 for human CCD 19Lu cells to IC50 for human HepG2 cells; assay type: toxicity; settings: CCD 19Lu cells versus HepG2 cells, read-out: Ratio IC50
[8] = Induction of apoptosis in human HePAD38 cells assessed as necrotic cells at 1 uM measured after 24 hrs by Annexin-V/PI staining based flow cytometry assay (reference value: 0.903%); assay type: functional
HeLa [9] = test: Inhibition of human SERCA in human HeLa cells assessed as alteration of calcium dynamics at 1 uM preincubated with compound C measured after 2 hrs by FLIPR calcium assay; assay type: cell-based
HepG2 [10] = test: Induction of apoptosis in human HepG2 cells assessed as necrotic cells at 1 uM measured after 24 hrs by Annexin-V/PI staining based flow cytometry assay (reference value: 0.725%); assay type: functional
[11] = Induction of apoptosis in human HePAD38 cells assessed as early apoptotic cells at 1 uM measured after 24 hrs by Annexin-V/PI staining based flow cytometry assay (reference value: 0.158%); assay type: functional
HeLa [12] = test: Inhibition of human SERCA in human HeLa cells assessed as depletion of SERCA-dependent calcium storage at 1 uM preincubated with TG by FLIPR calcium assay; assay type: cell-based
[13] = Induction of apoptosis in human HePAD38 cells assessed as viable cells at 1 uM measured after 24 hrs by Annexin-V/PI staining based flow cytometry assay (reference value: 98.9%); assay type: functional; settings: read-out: Activity
HepG2 [14] = test: Induction of apoptosis in human HepG2 cells assessed as viable cells at 1 uM measured after 24 hrs by Annexin-V/PI staining based flow cytometry assay (reference value: 99.1%); assay type: functional; settings: read-out: Activity
HepG2 [15] = test: Induction of apoptosis in human HepG2 cells assessed as early apoptotic cells at 1 uM measured after 24 hrs by Annexin-V/PI staining based flow cytometry assay (reference value: 0.181%); assay type: functional
HeLa [16] = test: Inhibition of human SERCA in human HeLa cells assessed as alteration of calcium dynamics at 1 uM measured by FLIPR calcium assay; assay type: cell-based
HepG2 [17] = test: Induction of apoptosis in human HepG2 cells assessed as late apoptotic cells at 1 uM measured after 24 hrs by Annexin-V/PI staining based flow cytometry assay (reference value: 0.016%); assay type: functional
L02 [18] = test: Induction of apoptosis in human L02 cells assessed as early apoptotic cells at 1 uM measured after 24 hrs by Annexin-V/PI staining based flow cytometry assay (reference value: 1.49%); assay type: cell-based; settings: l02, 24 h
[19] = Induction of apoptosis in human L02 cells assessed as viable cells at 1 uM measured after 24 hrs by Annexin-V/PI staining based flow cytometry assay (reference value: 97.5%); assay type: cell-based; settings: read-out: Activity
L02 [20] = test: Induction of apoptosis in human L02 cells assessed as necrotic cells at 1 uM measured after 24 hrs by Annexin-V/PI staining based flow cytometry assay (reference value: 0.848%); assay type: cell-based; settings: l02, 24 h
[21] = Induction of apoptosis in human HePAD38cells assessed as late apoptotic cells at 1 uM measured after 24 hrs by Annexin-V/PI staining based flow cytometry assay (reference value: 0.032%); assay type: functional, HePAD38
L02 [22] = test: Induction of apoptosis in human L02 cells assessed as late apoptotic cells at 1 uM measured after 24 hrs by Annexin-V/PI staining based flow cytometry assay (reference value: 0.133%); assay type: cell-based; settings: l02, 24 h

Row | Structure (SMILES) | IC50 (HepG2 [1]) [µM] | IC50 (L02 [2]) [µM] | IC50 (A549) [µM] | IC50 (BEAS-2B) [µM] | IC50 [3] [µM] | Ratio IC50 [4] | Ratio IC50 [5] | selectivity ratio [6] | selectivity ratio [7] | other results
1 | CC1=C(O)C(=O)C=C2C1=CC=C1[C@@]2(C)CC[C@@]2(C)[C@@H]3C[C@](C)(C(=O)NC(CCC(=O)OC(C)(C)C)C(=O)OC(C)(C)C)CC[C@]3(C)CC[C@]12C (stereo not given in full) | 2.52 | 4.23 | 4.2 | 0.62 | 1.54 |  |  |  |  | 
2 | CC1=C(O)C(=O)C=C2C1=CC=C1[C@@]2(C)CC[C@@]2(C)[C@@H]3C[C@](C)(C(=O)NC(CCC(=O)N(CC(=O)OC(C)(C)C)C(=O)OC(C)(C)C)C(=O)OC(C)(C)C)CC[C@]3(C)CC[C@]12C (stereo not given in full) | 1.54 | 2.34 | 3.4 | 1.33 | 2.55 | 3.4 | 0.91 | 1.52 | 5.96 | 
3 | COC(=O)CCNC(=O)[C@]1(C)CC[C@]2(C)CC[C@]3(C)C4=CC=C5C(=CC(=O)C(O)=C5C)[C@]4(C)CC[C@@]3(C)[C@@H]2C1 | 1.04 | 0.55 | 1.91 | 0.32 |  |  |  |  |  | 
4 | CC1=C(O)C(=O)C=C2C1=CC=C1[C@@]2(C)CC[C@@]2(C)[C@@H]3C[C@](C)(C(=O)NC(CCC(=O)NC(CCC(=O)OC(C)(C)C)C(=O)OC(C)(C)C)C(=O)OC(C)(C)C)CC[C@]3(C)CC[C@]12C (stereo not given in full) | 4.27 | 9.55 | 6.19 | 38.6 | 4.74 | 12 | 2.01 | 2.23 | 13.4 | Activity [8]: 13.7%; inhibition (HeLa [9]): Active; Activity (HepG2 [10]): 7.33%; Activity [11]: 1.85%; inhibition (HeLa [12]): Active; viability at 1 µM [13]: 80.3%; viability at 1 µM (HepG2 [14]): 80.2%; Activity (HepG2 [15]): 1.55%; inhibition (HeLa [16]): Active; Activity (HepG2 [17]): 11%; Activity (L02 [18]): 6.2%; viability at 24 h, 1 µM [19]: 86.7%; Activity (L02 [20]): 1.64%; Activity [21]: 4.17%; Activity (L02 [22]): 5.44%
5 | CC1=C(O)C(=O)C=C2C1=CC=C1[C@@]2(C)CC[C@@]2(C)[C@@H]3C[C@](C)(C(=O)NCCCNC(=O)OC(C)(C)C)CC[C@]3(C)CC[C@]12C | 1.95 | 3.27 | 4.88 | 0.57 |  |  |  |  |  | 
6 | CC1=C(O)C(=O)C=C2C1=CC=C1[C@@]2(C)CC[C@@]2(C)[C@@H]3C[C@](C)(C(=O)NC(CC(=O)OC(C)(C)C)C(=O)NC(CCC(=O)OC(C)(C)C)C(=O)OC(C)(C)C)CC[C@]3(C)CC[C@]12C (stereo not given in full) | 20.3 | 45.4 | 37.7 | 6.87 | 17 | 0.61 | 2.67 | 2.23 | 0.51 | 
7 | CC1=C(O)C(=O)C=C2C1=CC=C1[C@@]2(C)CC[C@@]2(C)[C@@H]3C[C@](C)(C(=O)NC(CC(=O)OC(C)(C)C)C(=O)OC(C)(C)C)CC[C@]3(C)CC[C@]12C (stereo not given in full) | 3.56 | 15.4 | 4.92 | 3.72 | 11.8 |  |  |  |  | 
8 | CC1=C(O)C(=O)C=C2C1=CC=C1[C@@]2(C)CC[C@@]2(C)[C@@H]3C[C@](C)(C(=O)NC(CC(=O)NC(CCC(=O)OC(C)(C)C)C(=O)OC(C)(C)C)C(=O)OC(C)(C)C)CC[C@]3(C)CC[C@]12C (stereo not given in full) | 8.78 | 30.2 | 19.3 | 3.22 | 4.15 | 2.28 | 7.27 | 3.43 | 1.07 | 
9 | CC1=C(O)C(=O)C=C2C1=CC=C1[C@@]2(C)CC[C@@]2(C)[C@@H]3C[C@](C)(C(=O)NC(CC(=O)NC(CC(=O)OC(C)(C)C)C(=O)OC(C)(C)C)C(=O)OC(C)(C)C)CC[C@]3(C)CC[C@]12C (stereo not given in full) | 7.98 | 19.1 | 9.85 | 2.18 | 4.54 | 1.07 | 4.21 | 2.39 | 0.61 | 
10 | CC1=C(O)C(=O)C=C2C1=CC=C1[C@@]2(C)CC[C@@]2(C)[C@@H]3C[C@](C)(C(=O)NCCCNC(=O)[C@@]4(C)CC[C@@]5(C)CC[C@@]6(C)C7=CC=C8C(=CC(=O)C(O)=C8C)[C@@]7(C)CC[C@]6(C)[C@H]5C4)CC[C@]3(C)CC[C@]12C | 1.17 | 1.65 | 2.45 | 0.41 |  |  |  |  |  | 
11 | CC1=C(O)C(=O)C=C2C1=CC=C1[C@@]2(C)CC[C@@]2(C)[C@@H]3C[C@](C)(C(=O)O)CC[C@]3(C)CC[C@]12C [CELASTROL] | 0.94 | 0.78 | 2.83 | 0.454 | 1.85 | 0.48 | 0.42 | 0.82 | 0.96 | Activity [8]: 9.47%; inhibition (HeLa [9]): Active; Activity (HepG2 [10]): 1.61%; Activity [11]: 4.73%; inhibition (HeLa [12]): Active; viability at 1 µM [13]: 75.3%; viability at 1 µM (HepG2 [14]): 79.6%; Activity (HepG2 [15]): 8.7%; inhibition (HeLa [16]): Active; Activity (HepG2 [17]): 10%; Activity (L02 [18]): 12.9%; viability at 24 h, 1 µM [19]: 70.8%; Activity (L02 [20]): 0.823%; Activity [21]: 10.5%; Activity (L02 [22]): 15.5%
12 | CC1=C(O)C(=O)C=C2C1=CC=C1[C@@]2(C)CC[C@@]2(C)[C@@H]3C[C@](C)(C(=O)NC(CC(=O)OC(C)(C)C)C(=O)NC(CC(=O)OC(C)(C)C)C(=O)OC(C)(C)C)CC[C@]3(C)CC[C@]12C (stereo not given in full) | 1.22 | 5.61 | 2.75 | 0.786 | 0.44 | 5 | 12.75 | 4.6 | 1.81 | Activity [8]: 5.58%; inhibition (HeLa [9]): Active; Activity (HepG2 [10]): 12.4%; Activity [11]: 2.27%; inhibition (HeLa [12]): Active; viability at 1 µM [13]: 73.6%; viability at 1 µM (HepG2 [14]): 69.7%; Activity (HepG2 [15]): 3.45%; inhibition (HeLa [16]): Active; Activity (HepG2 [17]): 14.5%; Activity (L02 [18]): 3.62%; viability at 24 h, 1 µM [19]: 82.6%; Activity (L02 [20]): 2.14%; Activity [21]: 18.5%; Activity (L02 [22]): 11.7%
